PMC6410080 (Viruses, 2019)
pIC50: −log10 of the molar value. Read-outs that look alike come from different tables or passages of the source.

Tests used:
[1] = tested on: DID-labelled SFV hemifusion/fusion; assay type: cell-based, Semliki Forest virus; conditions: HeLa Kyoto, 10 μM (20 μM Raloxifene; Bafilomycin 100 nM), 40 min at 37 °C
H5N1 VLP = assay: microbe, parasite or virus in culture; assay type: cell-based, influenza H5N1; conditions: read-out: IC50 H5N1
EBOV VLP = assay: microbe, parasite or virus in culture; assay type: cell-based, Ebola virus; conditions: read-out: IC50 EBOV
DENV-2 = DENV-2 infection assay / secondary screen (E protein staining); assay type: cell-based, dengue virus serotype 2; conditions: for % inhibition (DENV-2 screen): 10 µM
HeLa Kyoto cells [2] = tested on: HeLa Kyoto cells
SFV [3] = assay: microbe, parasite or virus in culture; assay type: cell-based, Semliki Forest virus; conditions: 10 µM
VACV = assay: microbe, parasite or virus in culture; assay type: cell-based, vaccinia virus
RABV VLP = assay: microbe, parasite or virus in culture; assay type: cell-based, rabies virus; conditions: read-out: IC50 RABV
SINV = assay: microbe, parasite or virus in culture; assay type: cell-based, Sindbis virus; conditions: read-out: IC50 SINV
HCV = assay: microbe, parasite or virus in culture; assay type: cell-based, hepatitis C virus; conditions: read-out: IC50 HCV
ZIKV [4] = assay: microbe, parasite or virus in culture; assay type: cell-based, Zika virus
SFV [5] = assay type: cell-based, Semliki Forest virus
Huh7 cells [6] = assay: MTT assay, Huh7 cells
Huh7 cells [7] = conditions: 10 µM
HIV-1 = assay: microbe, parasite or virus in culture; assay type: cell-based, human immunodeficiency virus type 1
HeLa Kyoto cells [8] = conditions: 10 µM
YF17D = assay: organism not typed; assay type: cell-based, yellow fever 17D; conditions: read-out: IC50 YF17D
DENV-3 = assay: microbe, parasite or virus in culture; assay type: cell-based, dengue virus; conditions: read-out: IC50 DENV-3
HSV-1 = assay: microbe, parasite or virus in culture; assay type: cell-based, herpes simplex virus 1; conditions: read-out: IC50 HSV (Vero)
VSV VLP = assay: microbe, parasite or virus in culture; assay type: cell-based, vesicular stomatitis virus; conditions: read-out: IC50 VSV
DENV-1 = assay: microbe, parasite or virus in culture; assay type: cell-based, dengue virus; conditions: read-out: IC50 DENV-1
ZIKV [9] = conditions: AG129 mice
[10] = Huh7, MOI 1, 24 h, compared to DMSO-treated controls

CO/C1=C\C(C)=C\[C@@H](C)[C@@H](O)[C@@H](C)C/C(C)=C/C=C/[C@H](OC)[C@@H]([C@@H](C)[C@@H](O)[C@H](C)[C@@]2(O)C[C@@H](O)[C@H](C)[C@@H](C(C)C)O2)OC1=O [Bafilomycin]
Inhibition of DID-SFV de-quenching (in words) [1]: Strong inhibition of de-quenching

CC(=O)/C=C1\C(=O)N(C)c2ccccc21 [Supercinnamaldehyde]
pIC50 (H5N1 VLP): 4.76 | pIC50 (EBOV VLP): 4.67 | % inhibition (DENV-2 screen) (DENV-2; [10]): 64.49% | pIC50 (DENV-2; Huh7, compounds 7 h then media replaced for 17 h, read-out: IC50 DENV-2 (7 + 17 h)): 4.81 | pIC50 (DENV-2; Huh7, compounds for entire 24 h, read-out: IC50 DENV-2 (24 h)): 4.82 | TC50 SFV (7 h) (HeLa Kyoto cells [2]): 40.5 µM | TC50 SFV (7h) (HeLa Kyoto cells [2]): 40500 µM | % inhibition (SFV screen) (SFV [3]): 89.06% | IC50 VACV (VACV): No inhibition | pIC50 (RABV VLP): 4.67 | pIC50 (SINV): 4.60 | pIC50 (HCV): 4.80 | IC50 ZIKV (ZIKV [4]): No inhibition | Activity when added before SFV or 30 and 60 min after internalisation (SFV [5]): No difference | Time of Addition (SFV [5]): After fusion | TC50 DENV-2 (7 + 17 h) (Huh7 cells [6]; Huh7, compounds 7 h then compound-free media 17 h): 59.6 µM | TC50 DENV-2 (24 h) (Huh7 cells [6]; Huh7, compounds 24 h): 25.8 µM | % viability (DENV-2 screen) (Huh7 cells [7]): 90.32% | IC50 HIV (HIV-1): No inhibition | % viability (SFV screen) (HeLa Kyoto cells [8]): 69.48% | pIC50 (YF17D): 5.12 | pIC50 (DENV-3): 4.91 | pIC50 (HSV-1): 4.60 | pIC50 (VSV VLP): 4.84 | pIC50 (DENV-1): ~4.64

C=CCN1CC[C@]23c4c5ccc(O)c4O[C@@H]2/C(=N/N=C2\CC[C@@]4(O)C6Cc7ccc(O)c8c7[C@@]4(CCN6CC=C)[C@@H]2O8)CC[C@@]3(O)C1C5.Cl.Cl [Naloxonazine dihydrochloride]
% inhibition (DENV-2 screen) (DENV-2): 16.23% | % inhibition (SFV screen) (SFV [3]): 70.80% | % viability (DENV-2 screen) (Huh7 cells [7]): 111.66% | % viability (SFV screen) (HeLa Kyoto cells [8]): 87.36%

CCOC(=O)N1CCN(/[N+]([O-])=N/Oc2ccc([N+](=O)[O-])cc2[N+](=O)[O-])CC1 [JS-K]
% inhibition (DENV-2 screen) (DENV-2; [10]): 84.24% | % inhibition (SFV screen) (SFV [3]): 84.89% | % viability (DENV-2 screen) (Huh7 cells [7]; Huh7, 24 h, compared to DMSO-treated controls): 53.82% | % viability (SFV screen) (HeLa Kyoto cells [8]): 66.74%

CC(C)OC(=O)[C@H](C)N[P@](=O)(OC[C@H]1O[C@@H](n2ccc(=O)[nH]c2=O)[C@](C)(F)[C@@H]1O)Oc1ccccc1 [Sofosbuvir]
Infectious virus in the blood at day 7 p.i. (ZIKV [9]; immunofocus assay): cleared infectious virus from the blood by day 7 | ZIKV blood titres at day 1 p.i. (ZIKV [9]; qRT-PCR and immunofocus assay, vs untreated): significantly reduced blood titres
